Read-outs that look alike come from different tables or passages of the source.
What was measured:
[1] = target: human Adenosine A1 receptor (Homo sapiens (Human), UniProt P30542); experiment: Adenosine receptor TR-FRET binding assay (A1); conditions: inhibition of binding of 100 nM CA200645, CHO cell membranes
Procedure, shortened: (§1)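 Competition binding measured by TR-FRET between terbium-labelled receptors (CHO membranes, human) and fluorescent XAC, CA200645, used at 30 nM for A2b and 100 nM elsewhere. Room temperature, 2 h. Reported as Ki (Cheng–Prusoff).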

[2] = system: CD8+T cells in human whole blood; experiment: Measurement of pCREB in CD8+T cells in human whole blood; assay type: cell-based; conditions: 3 μM NECA, rolipram
Protocol: Biological Example—Measurement of pCREB in CD8+T Cells in Human Whole Blood
Heparinised human whole blood was pre-incubated at 37° C. with serial dilutions of A2a antagonists for 20 min. and the phosphodiesterase inhibitor rolipram to amplify the pCREB response. The adenosine receptor agonist NECA is then added at a final concentration of 3 μM and following a 60 min incubation the blood is fixed and red blood cells lysed. White blood cells are isolated, permeabilized and stained with directly conjugated fluorescent antibodies to phospho-CREB (Alexa Fluor 488) and CD8 (Alexa Fluor 647) and the level of phospho-CREB in CD8+T cells is measured by FACS using a BD Accuri C6 Flow Cytometer.

[3] = target: human Adenosine A3 receptor (Homo sapiens (Human), UniProt P0DMS8); experiment: Adenosine receptor TR-FRET binding assay (A3); conditions: inhibition of binding of 100 nM CA200645, CHO cell membranes
Sequence of human Adenosine A3 receptor (P0DMS8 whole entry): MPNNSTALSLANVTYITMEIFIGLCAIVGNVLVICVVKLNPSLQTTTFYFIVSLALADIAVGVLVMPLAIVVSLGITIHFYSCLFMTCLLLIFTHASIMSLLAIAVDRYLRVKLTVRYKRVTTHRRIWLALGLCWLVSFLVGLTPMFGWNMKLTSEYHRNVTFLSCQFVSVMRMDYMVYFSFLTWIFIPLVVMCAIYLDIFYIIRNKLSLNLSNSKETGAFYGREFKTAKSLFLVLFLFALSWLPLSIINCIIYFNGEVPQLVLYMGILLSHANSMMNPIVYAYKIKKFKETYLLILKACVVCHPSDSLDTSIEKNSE
Procedure, shortened: as §1

[4] = system: human PBMCs; experiment: CD3/CD28 stimulated IL-2 release NECA reversal assay in human PBMCs; assay type: cell-based; conditions: PBMC, 1 uM NECA, 24 hours, IL-2 in culture supernatant
Protocol: Biological Example—CD3/CD28 Stimulated IL-2 Release NECA Reversal Assay in Human PBMCs
Blood is drawn from healthy volunteers using sodium citrate as the anticoagulant (0.3% final concentration). After centrifugation of the blood over Histopaque-1077, PBMCs are collected from the Histopaque/plasma interface and washed twice in PBS (300 g for 10 mins at room temp). Cells are plated at 50,000 cells/well in 150 μl RPMI/10% FCS in 96-well cell culture plates that have been precoated with 1 ug/ml CD3 antibody. 50 μl diluted compound mix is added to the cells, to obtain final concentrations of 1 ug/ml CD28 antibody, 1 uM NECA and 0.003-10 μM adenosine receptor antagonist. Assay plates are incubated for 24 hours at 37° C. in a humidified incubator. Culture supernatant is tested for IL-2 levels using the human IL-2 Tissue Culture Kit (Meso Scale Discovery). Data for dose-response curves is calculated as % inhibition with 100% inhibition defined from no agonist control wells (+CD3/28-NECA)

[5] = target: human Adenosine A2b receptor (Homo sapiens (Human), UniProt P29275); experiment: Adenosine receptor TR-FRET binding assay (A2b)
Sequence of human Adenosine A2b receptor (P29275 whole entry): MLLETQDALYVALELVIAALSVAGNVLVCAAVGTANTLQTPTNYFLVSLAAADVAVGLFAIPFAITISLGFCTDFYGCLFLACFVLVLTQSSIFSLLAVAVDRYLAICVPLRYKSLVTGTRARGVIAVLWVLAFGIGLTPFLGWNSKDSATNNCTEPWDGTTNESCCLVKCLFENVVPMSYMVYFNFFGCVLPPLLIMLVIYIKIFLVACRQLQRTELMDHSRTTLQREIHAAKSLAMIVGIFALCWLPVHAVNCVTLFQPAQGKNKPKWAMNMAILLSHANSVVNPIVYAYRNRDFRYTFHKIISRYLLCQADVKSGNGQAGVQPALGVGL
Procedure, shortened: as §1

[6] = target: human Adenosine A2a receptor (Homo sapiens (Human), UniProt P29274); experiment: Adenosine receptor TR-FRET binding assay (A2a); conditions: inhibition of binding of 100 nM CA200645, CHO cell membranes
Sequence of human Adenosine A2a receptor (P29274 whole entry): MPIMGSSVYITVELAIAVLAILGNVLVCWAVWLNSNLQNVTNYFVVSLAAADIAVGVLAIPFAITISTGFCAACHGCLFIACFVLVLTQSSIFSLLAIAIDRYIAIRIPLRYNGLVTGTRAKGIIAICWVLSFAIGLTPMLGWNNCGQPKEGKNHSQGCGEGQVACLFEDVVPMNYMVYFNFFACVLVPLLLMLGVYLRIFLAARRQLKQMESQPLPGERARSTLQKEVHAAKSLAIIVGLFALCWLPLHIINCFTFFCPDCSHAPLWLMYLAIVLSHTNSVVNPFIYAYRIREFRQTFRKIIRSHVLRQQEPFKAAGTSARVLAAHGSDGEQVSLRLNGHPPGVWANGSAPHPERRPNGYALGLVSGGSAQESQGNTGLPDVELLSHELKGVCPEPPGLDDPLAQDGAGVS
Procedure, shortened: as §1

[7] = TR-FRET, inhibition of binding of 30 nM CA200645, CHO cell membranes

Sequence of human Adenosine A1 receptor (P30542 whole entry): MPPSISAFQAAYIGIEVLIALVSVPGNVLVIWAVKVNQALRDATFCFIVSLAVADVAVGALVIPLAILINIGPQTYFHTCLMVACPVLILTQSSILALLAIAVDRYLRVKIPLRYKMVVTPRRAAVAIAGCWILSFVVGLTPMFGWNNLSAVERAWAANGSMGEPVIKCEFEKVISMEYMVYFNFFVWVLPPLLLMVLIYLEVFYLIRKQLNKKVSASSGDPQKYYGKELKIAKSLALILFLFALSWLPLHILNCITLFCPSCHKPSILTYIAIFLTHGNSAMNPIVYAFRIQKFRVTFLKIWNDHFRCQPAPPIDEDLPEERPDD

`Cc1cc(-c2sc(NC(=O)N3CCS(=O)(=NC#N)CC3)nc2-c2cccc(C#N)c2)cc(C)n1` [Example 11, 1-Cyanoimino-N-[4-(3-cyanophenyl)-5-(2,6-dimethyl-4-pyridyl)thiazol-2-yl]-1-oxo-1,4-thiazinane-4-carboxamide] showed a Ki [1] of 51 nM, an IC50 [2] of 1130 nM and a Ki [3] of 515 nM. The IC50 [4] was 10.5 nM, the Ki [5, 7] was 1.3 nM and the Ki [6] was 0.62 nM.

`Cc1cc(-c2sc(NC(=O)N3CCN[C@H](C)C3)nc2-c2cccc(C#N)c2)cc(C)n1` [Example 7.1, (3R)—N-[4-(3-Cyanophenyl)-5-(2,6-dimethyl-4-pyridyl)thiazol-2-yl]-3-methyl-piperazine-1-carboxamide] gave a Ki [1] of 47 nM, an IC50 [2] of 650 nM and a Ki [3] of 418 nM. The IC50 [4] was 20.5 nM, the Ki [5, 7] was 7.6 nM and the Ki [6] was 0.99 nM.

In the case of `Cc1cc(-c2sc(NC(=O)N3CC[C@@H](C(C)(C)O)C3)nc2-c2cccc(C#N)c2)cc(CO)n1` [Example 9.2], the Ki [1] is reported as 102 nM, the IC50 [2] is reported as 20 nM and the Ki [3] is reported as 772 nM. For the same compound, the IC50 [4] was 2.7 nM, the Ki [5, 7] was 5.3 nM and the Ki [6] was 0.79 nM.

For `Cc1cc(-c2sc(NC(=O)N3CCC(C(N)=O)CC3)nc2-c2cccc(C#N)c2)cc(C)n1` [Example 4.29, N1-[4-(3-Cyanophenyl)-5-(2,6-dimethyl-4-pyridyl)thiazol-2-yl]piperidine-1,4-dicarboxamide], the Ki [1] was 24 nM, the IC50 [2] was 50 nM and the Ki [3] was 112 nM. The IC50 [4] was 2.1 nM, the Ki [5, 7] was 1.3 nM and the Ki [6] was 0.13 nM.

`COC1(C#N)CCN(C(=O)Nc2nc(-c3cccc(C#N)c3)c(-c3cc(C)nc(CO)c3)s2)CC1` [Example 9.9] gave a Ki [1] of 48 nM, an IC50 [2] of 20 nM and a Ki [3] of 491 nM. The IC50 [4] was 1.3 nM, the Ki [5, 7] was 3.1 nM and the Ki [6] was 0.31 nM.

Compound `Cc1cc(-c2sc(NC(=O)N3CCN(S(N)(=O)=O)CC3)nc2-c2cccc(C#N)c2)cc(C)n1` [Example 4.19, N-[4-(3-cyanophenyl)-5-(2,6-dimethyl-4-pyridyl)thiazol-2-yl]-4-sulfamoyl-piperazine-1-carboxamide] has a Ki [1] of 46 nM, an IC50 [2] of 5520 nM and a Ki [3] of 232 nM. It also gave an IC50 [4] of 5.4 nM, a Ki [5] of 1.3 nM and a Ki [6] of 0.6 nM.

`Cc1cc(-c2sc(NC(=O)N3CC(C#N)C3)nc2-c2cccc(C#N)c2)cc(C)n1` [Example 4.26, 3-Cyano-N-[4-(3-cyanophenyl)-5-(2,6-dimethyl-4-pyridyl)thiazol-2-yl]azetidine-1-carboxamide] was tested, and the Ki [1] was 4 nM, the IC50 [2] was 20 nM and the Ki [3] was 130 nM. The IC50 [4] was 0.4 nM, the Ki [5, 7] was 0.4 nM and the Ki [6] was 0.05 nM.

Compound `Cc1cc(-c2sc(NC(=O)N3CC(O)C3)nc2-c2cccc(C#N)c2)cc(C)n1` [Example 4.30, N-[4-(3-Cyanophenyl)-5-(2,6-dimethyl-4-pyridyl)thiazol-2-yl]-3-hydroxy-azetidine-1-carboxamide] has a Ki [1] of 7 nM, an IC50 [2] of 60 nM and a Ki [3] of 106 nM. For the same compound, the IC50 [4] was 1.3 nM, the Ki [5, 7] was 0.6 nM and the Ki [6] was 0.41 nM.

`Cc1cc(-c2sc(NC(=O)N3CCC4(CC3)CNC4=O)nc2-c2cccc(C#N)c2)cc(C)n1` [Example 6.20, N-[4-(3-Cyanophenyl)-5-(2,6-dimethyl-4-pyridyl)thiazol-2-yl]-3-oxo-2,7-diazaspiro[3.5]nonane-7-carboxamide] gave a Ki [1] of 53 nM, an IC50 [2] of 20 nM and a Ki [3] of 287 nM. For the same compound, the IC50 [4] was 1.8 nM, the Ki [5, 7] was 1.9 nM and the Ki [6] was 0.14 nM.

With `Cc1cc(-c2sc(NC(=O)N3CCC4(CC3)COC4)nc2-c2cccc(C#N)c2)cc(C)n1` [Example 6.10, N-[4-(3-Cyanophenyl)-5-(2,6-dimethyl-4-pyridyl)thiazol-2-yl]-2-oxa-7-azaspiro[3.5]nonane-7-carboxamide] the Ki [1] was 14 nM, the IC50 [2] was 40 nM and the Ki [3] was 316 nM. The IC50 [4] was 2.9 nM, the Ki [5, 7] was 1.2 nM and the Ki [6] was 0.3 nM.

`Cc1cc(-c2sc(NC(=O)N3CCC4(CC3)NC(=O)NC4=O)nc2-c2cccc(C#N)c2)cc(C)n1` [Example 4.20, N-[4-(3-Cyanophenyl)-5-(2,6-dimethyl-4-pyridyl)thiazol-2-yl]-2,4-dioxo-1,3,8-triazaspiro[4.5]decane-8-carboxamide] showed a Ki [1] of 161 nM, an IC50 [2] of 130 nM and a Ki [3] of 967 nM. For the same compound, the IC50 [4] was 1.3 nM, the Ki [5, 7] was 2.6 nM and the Ki [6] was 1.5 nM.

With `CC(=O)N1CCN(C(=O)Nc2nc(-c3cccc(C#N)c3)c(-c3cc(C)nc(C)c3)s2)CC1` [Example 4.17, 4-Acetyl-N-[4-(3-cyanophenyl)-5-(2,6-dimethyl-4-pyridyl)thiazol-2-yl]piperazine-1-carboxamide] the Ki [1] was 77 nM, the IC50 [2] was 370 nM and the Ki [3] was 293 nM. The IC50 [4] was 8.5 nM, the Ki [5, 7] was 2.8 nM and the Ki [6] was 1.9 nM.

Work on `Cc1cc(-c2sc(NC(=O)N3CCN[C@H](C)C3)nc2-c2cccc(C#N)c2)cc(Cl)n1` [Example 5.5, (3R)-N-[5-(2-Chloro-6-methyl-4-pyridyl)-4-(3-cyanophenyl)thiazol-2-yl]-3-methyl-piperazine-1-carboxamide] yielded a Ki [1] of 114 nM, an IC50 [2] of 2690 nM and a Ki [3] of 70 nM. The IC50 [4] was 30.6 nM, the Ki [5, 7] was 2.4 nM and the Ki [6] was 0.94 nM.

`Cc1cc(-c2sc(NC(=O)N3CCC4(CCNC(=O)C4)CC3)nc2-c2cccc(C#N)c2)cc(C)n1` [Example 6.26, N-[4-(3-Cyanophenyl)-5-(2,6-dimethyl-4-pyridyl)thiazol-2-yl]-10-oxo-3,9-diazaspiro[5.5]undecane-3-carboxamide] was tested, and the Ki [1] was 86 nM, the IC50 [2] was 80 nM and the Ki [3] was 302 nM. The IC50 [4] was 3.2 nM, the Ki [5, 7] was 3.8 nM and the Ki [6] was 0.79 nM.

`Cc1cc(-c2sc(NC(=O)N3CCN(S(C)(=O)=O)CC3)nc2-c2cccc(C#N)c2)cc(C)n1` [Example 4.18, N-[4-(3-cyanophenyl)-5-(2,6-dimethyl-4-pyridyl)thiazol-2-yl]-4-methylsulfonyl-piperazine-1-carboxamide] gave a Ki [1] of 94 nM, an IC50 [2] of 350 nM and a Ki [3] of 414 nM. For the same compound, the IC50 [4] was 6.1 nM, the Ki [5, 7] was 2.3 nM and the Ki [6] was 0.6 nM.

`Cc1cc(-c2sc(NC(=O)N3CC(C#N)(CO)C3)nc2-c2cccc(C#N)c2)cc(C)n1` [Example 6.64, 3-Cyano-N-[4-(3-cyanophenyl)-5-(2,6-dimethyl-4-pyridyl)thiazol-2-yl]-3-(hydroxymethyl)azetidine-1-carboxamide] gave a Ki [1] of 27 nM, an IC50 [2] of 10 nM and a Ki [3] of 235 nM. For the same compound, the IC50 [4] was 1.1 nM, the Ki [5, 7] was 1.4 nM and the Ki [6] was 0.14 nM.

`CN=S1(=O)CCN(C(=O)Nc2nc(-c3cccc(C#N)c3)c(-c3cc(C)nc(C)c3)s2)CC1` [Example 6.32, N-[4-(3-Cyanophenyl)-5-(2,6-dimethyl-4-pyridyl)thiazol-2-yl]-1-methylimino-1-oxo-1,4-thiazinane-4-carboxamide] was tested, and the Ki [1] was 109 nM, the IC50 [2] was 230 nM and the Ki [3] was 719 nM. For the same compound, the IC50 [4] was 8.6 nM, the Ki [5, 7] was 5.4 nM and the Ki [6] was 0.83 nM.

In the case of `Cc1cc(-c2sc(NC(=O)N3CCC(C#N)(CO)CC3)nc2-c2cccc(C#N)c2)cc(CO)n1` [Example 9.7], the Ki [1] is reported as 68 nM, the IC50 [2] is reported as 10 nM and the Ki [3] is reported as 742 nM. It also gave an IC50 [4] of 1 nM, a Ki [5, 7] of 3.2 nM and a Ki [6] of 0.42 nM.

`Cc1cc(-c2sc(NC(=O)N3CCS(=N)(=O)CC3)nc2-c2cccc(C#N)c2)cc(C)n1` [Example 4.2, N-[4-(3-Cyanophenyl)-5-(2,6-dimethyl-4-pyridyl)thiazol-2-yl]-1-imino-1-oxo-1,4-thiazinane-4-carboxamide] gave a Ki [1] of 28 nM, an IC50 [2] of 90 nM and a Ki [3] of 881 nM. It also gave an IC50 [4] of 7.9 nM, a Ki [5, 7] of 4.4 nM and a Ki [6] of 0.27 nM.

`Cc1cc(-c2sc(NC(=O)N3CCC(C#N)(C(C)(C)O)CC3)nc2-c2cccc(C#N)c2)cc(C)n1` [Example 6.41, 4-Cyano-N-[4-(3-cyanophenyl)-5-(2,6-dimethyl-4-pyridyl)thiazol-2-yl]-4-(1-hydroxy-1-methyl-ethyl)piperidine-1-carboxamide] gave a Ki [1] of 111 nM, an IC50 [2] of 120 nM and a Ki [3] of 235 nM. The IC50 [4] was 2.7 nM, the Ki [5, 7] was 1.3 nM and the Ki [6] was 0.18 nM.

For `Cc1cc(-c2sc(NC(=O)N3CCC4(CC3)CNC(=O)C4)nc2-c2cccc(C#N)c2)cc(C)n1` [Example 6.4, N-[4-(3-Cyanophenyl)-5-(2,6-dimethyl-4-pyridyl)thiazol-2-yl]-3-oxo-2,8-diazaspiro[4.5]decane-8-carboxamide], the Ki [1] was 103 nM, the IC50 [2] was 190 nM and the Ki [3] was 360 nM. It also gave an IC50 [4] of 1.4 nM, a Ki [5, 7] of 3.1 nM and a Ki [6] of 0.67 nM.
